Assay results from ChEMBL document CHEMBL5149973, “Agaricus bisporus-Derived Glucosamine Hydrochloride Facilitates Skeletal Injury Repair through Bmp Signaling in Zebrafish Osteoporosis Model” (J Nat Prod, 2021).
Activity calls are given as the source filed them. The rule behind the calls is not given here.

Legend:
[1] = species: Danio rerio; assay: Suppression of Bmp signaling in Zebrafish embryo assessed as reduction in slight loss of tail tissue at 0.1 % measured at 26 hrs post fertilization in presence of dorsomorphin; assay type: functional; parameters: scale not given: the % may be the effect or the level left
[2] = species: Danio rerio; assay: Suppression of Bmp signaling in Zebrafish embryos assessed as decrease in Sox9b gene expression level at 0.1 % measured at 26 hrs post fertilization by semiquantitative PCR analysis; assay type: functional, tissue-based; settings: Embryo
[3] = tested on: Osteoblast; assay: Induction of osteoblast differentiation in Zebrafish embryo assessed as upregulation of sox9a gene expression in head measured at 0.75 to 72 hrs post fertilization at 0.05 to 0.3 % by […] analysis; assay type: functional; settings: Danio rerio, dose 0.05-0.3 %, time 0.75-72 hrs
[4] = species: Danio rerio; assay: Induction of Zebrafish embryo skeletal development assessed as increase in Bmp7a mRNA expression level in gastrula stage at 0.05 to 0.1 % measured at 24 hrs post fertilization by ISH analysis; assay type: functional, tissue-based; settings: dose 0.05-0.1 %
[5] = species: Danio rerio; assay: Induction of Zebrafish embryo skeletal development assessed as upregulation of col10a1a gene expression in operculum at 0.01 to 0.3 % measured after 72 hrs post fertilization by […] analysis; assay type: functional; settings: dose 0.01-0.3 %
[6] = tested on: Osteoblast; assay: Induction of osteoblast differentiation in Zebrafish embryo assessed as upregulation of runx2b gene expression in operculum measured at 0.75 to 72 hrs post fertilization at 0.05 to 0.3 % by […] analysis; assay type: functional, tissue-based; settings: Danio rerio, dose 0.05-0.3 %, time 0.75-72 hrs
[7] = tested on: Osteoblast; assay: Induction of osteoblast differentiation in transgenic osx mCherry Zebrafish embryo assessed as increase in sp7 mRNA expression in distal fin rays at 0.1 % measured after 6 days by ISH analysis; assay type: functional; settings: Danio rerio, time 6.0 day
[8] = Induction of Zebrafish embryo skeletal development assessed as mortality rate of embryo at 0.3 % measured after 72 hrs post fertilization by Alcian blue staining based assay; assay type: functional, Danio rerio
[9] = Induction of Zebrafish embryo skeletal development assessed as ventralized embryos at 0.3 % measured at 24 hrs post fertilization relative to control; assay type: functional, Danio rerio
[10] = species: Danio rerio; assay: Induction of Zebrafish embryo skeletal development assessed as nuclear localization of p-Smad1 in head at 0.1 % measured at 24 to 72 hrs post fertilization by DAPI staining based analysis; assay type: functional, tissue-based; settings: time 24-72 hrs
[11] = species: Danio rerio; assay: Induction of Zebrafish embryo skeletal development assessed as increase in Smad1 gene expression level in coccygeal vertebra at 0.1 % measured for 0.75 to 24 hrs post fertilization by ISH analysis; assay type: functional, tissue-based; settings: time 0.75-24 hrs
[12] = species: Danio rerio; assay: Induction of Zebrafish embryo skeletal development assessed as increase in Bmp4 mRNA expression level in bud region at 0.1 to 0.3 % measured at 24 hrs post fertilization by ISH analysis; assay type: functional, tissue-based; settings: dose 0.1-0.3 %
[13] = species: Danio rerio; assay: Anti-osteoporosis activity in FAC-induced skeletal injury Zebrafish assessed as rescue of skeletal density in head at 0.1 % measured for 10 day post fertilization; assay type: functional, organism-based
[14] = species: Danio rerio; assay: Induction of Zebrafish embryo skeletal development assessed as upregulation of col10a1a gene expression in branchiostegal at 0.01 to 0.3 % measured after 72 hrs post fertilization by […] analysis; assay type: functional; settings: dose 0.01-0.3 %
[15] = species: Danio rerio; assay: Suppression of Bmp signaling in Zebrafish embryos assessed as decrease in sp7 gene expression level at 0.1 % measured at 26 hrs post fertilization by semiquantitative PCR analysis; assay type: functional, tissue-based; settings: Embryo
[16] = species: Danio rerio; assay: Anti-osteoporosis activity in FAC-induced skeletal injury Zebrafish assessed as increase in cumulative bone optical density in caudal fins at 0.1 % measured for 10 day post fertilization; assay type: functional, organism-based
[17] = Induction of Zebrafish Larva caudal fin regeneration measured for 15 days by Calcein staining based assay; assay type: functional, Danio rerio; settings: time 15 day
[18] = tested on: Osteoblast; assay: Induction of osteoblast differentiation in transgenic osx mCherry Zebrafish embryo assessed as increase in Col1a2 mRNA expression in fin at 0.1 % measured after 15 days by semiquantitative PCR analysis; assay type: functional, tissue-based; settings: Danio rerio, time 15.0 day
[19] = species: Danio rerio; assay: Induction of Zebrafish embryo skeletal development assessed as nuclear localization of p-Smad5 in head at 0.1 % measured at 24 to 72 hrs post fertilization by DAPI staining based analysis; assay type: functional, tissue-based; settings: time 24-72 hrs
[20] = species: Danio rerio; assay: Induction of Zebrafish embryo skeletal development assessed as increase in Bmp2b mRNA expression level in bud region at 0.1 to 0.3 % measured at 24 hrs post fertilization by ISH analysis; assay type: functional, tissue-based; settings: dose 0.1-0.3 %
[21] = species: Danio rerio; assay: Induction of Zebrafish embryo skeletal development assessed as increase in gfp expression level in ventral head at 0.05 to 0.3 % measured at 24 to 72 hrs post fertilization by DAPI staining based analysis; assay type: functional, tissue-based; settings: dose 0.05-0.3 %, time 24-72 hrs
[22] = species: Danio rerio; assay: Induction of transgenic Zebrafish embryo skeletal development assessed as increase in GFP expression level in head at 0.05 to 0.3 % measured at 24 to 72 hrs post fertilization by DAPI staining based analysis; assay type: functional, tissue-based; settings: dose 0.05-0.3 %, time 24-72 hrs
[23] = species: Danio rerio; assay: Induction of Zebrafish embryo skeletal development assessed as increase in gfp expression level in tail at 0.05 to 0.3 % measured at 24 to 72 hrs post fertilization by DAPI staining based analysis; assay type: functional, tissue-based; settings: dose 0.05-0.3 %, time 24-72 hrs
[24] = species: Danio rerio; assay: Anti-osteoporosis activity in FAC-induced skeletal injury Zebrafish larvae assessed as reduction in bone damage measured for 10 day post fertilization by Alizarin red staining based assay; assay type: functional, Larva; parameters: scale not given: the % may be the effect or the level left
[25] = species: Danio rerio; assay: Induction of Zebrafish embryo skeletal development assessed as Bmp2b localization in cytoplasm at 0.1 % measured at 24 to 72 hrs post fertilization; assay type: functional, tissue-based; settings: time 24-72 hrs
[26] = Induction of Zebrafish embryo skeletal development assessed as mortality rate of embryo at 0.01 % measured after 72 hrs post fertilization by Alcian blue staining based assay; assay type: functional, Danio rerio
[27] = species: Danio rerio; assay: Suppression of Bmp signaling in Zebrafish embryos assessed as decrease in Bmp2b gene expression level at 0.1 % measured at 26 hrs post fertilization by semiquantitative PCR analysis; assay type: functional, tissue-based; settings: Embryo
[28] = Induction of Zebrafish embryo skeletal development assessed as mortality rate of embryo at 0.05 % measured after 72 hrs post fertilization by Alcian blue staining based assay; assay type: functional, Danio rerio
[29] = species: Danio rerio; assay: Induction of Zebrafish embryo skeletal development assessed as upregulation of col1a2 gene expression at 0.05 to 0.3 % measured after 72 hrs post fertilization by […] analysis; assay type: functional, tissue-based; settings: dose 0.05-0.3 %
[30] = tested on: Osteoblast; assay: Induction of osteoblast differentiation in transgenic osx mCherry Zebrafish embryo assessed as increase in Sox9a mRNA expression in fin at 0.1 % measured after 15 days by semiquantitative PCR analysis; assay type: functional, tissue-based; settings: Danio rerio, time 15.0 day
[31] = tested on: Osteoblast; assay: Induction of osteoblast differentiation in Zebrafish embryo assessed as upregulation of sox9b gene expression in head measured at 0.75 to 72 hrs post fertilization at 0.05 to 0.3 % by ELISA analysis; assay type: functional, tissue-based; settings: Danio rerio, dose 0.05-0.3 %, time 0.75-72 hrs
[32] = species: Danio rerio; assay: Induction of transgenic Zebrafish embryo skeletal development assessed as increase in GFP expression level in neural crest at 0.05 to 0.3 % measured at 24 to 72 hrs post fertilization by DAPI staining based analysis; assay type: functional, tissue-based; settings: dose 0.05-0.3 %, time 24-72 hrs
[33] = species: Danio rerio; assay: Induction of Zebrafish embryo skeletal development assessed as increase in Bmp2b mRNA expression level in head at 0.1 to 0.3 % measured at 24 hrs post fertilization by ISH analysis; assay type: functional, tissue-based; settings: dose 0.1-0.3 %
[34] = Induction of Zebrafish embryo skeletal development assessed as mortality rate of embryo at 0.1 % measured after 72 hrs post fertilization by Alcian blue staining based assay; assay type: functional, Danio rerio

Cl.N[C@@H]1[C@@H](O)[C@H](O)[C@@H](CO)O[C@H]1O
Activity [1]: 50%
Activity [2]: Active
Activity [3]: Active
Activity [4]: Active
Activity [5]: Active
Activity [6]: Active
Activity [7]: Active
Activity [8]: 28%
Activity [9]: 20%
Activity [10]: Active
Activity [11]: Active
Activity [12]: Active
Activity [13]: Active
Activity [14]: Active
Activity [15]: Active
Activity [16]: Active
Activity [17]: 50%
Activity [18]: Active
Activity [19]: Active
Activity [20]: Active
Activity [21]: Active
Activity [22]: Active
Activity [23]: Active
Activity [24]: 70%
Activity [25]: Active
Activity [26]: 12%
Activity [27]: Active
Activity [28]: 16%
Activity [29]: Active
Activity [30]: Active
Activity [31]: Active
Activity [32]: Active
Activity [33]: Active
Activity [34]: 24%
